Assay results as given in PMC7758422, “Design, Synthesis, and Antitumor Activities Study of Stapled A4K14-Citropin 1.1 Peptides” (Frontiers in Chemistry, 2020).
Like-named read-outs stand apart in the source and are kept apart here. Bridge positions count the residues as written; N and C are the ends. Square brackets hold non-standard residues; d marks the D form. Peptide text beside a SMILES is read from it. R8 = C=CCCCCCC[C@@](C)(N)C(=O)O; S5 = C=CCCC[C@](C)(N)C(=O)O

Tests used:
α-chymotrypsin = test: Protease stability experiment (α-chymotrypsin-mediated degradation); type: in vitro ADME; details: for half-life at 25 µM: α-chymotrypsin 0.5 ng/μl in PBS pH 7.4 with 2 mM CaCl2, 50 μl peptide 1 mM in DMSO + 1,950 μl enzyme, 37°C, 0, 1, 2, 4, 8, 12 h, residual peptide by HPLC, read-out: t1/2 (h), hydrolysis enzyme degradation half-life (converted); for remaining at 12 h, 25 µM: read-out: peptide remaining intact after 12 h of protease exposure
Procedure: Protease Stability Experiment
Fifty microliters peptides in dimethyl sulfoxide (DMSO) (1 mM) and 1,950 μl α-chymotrypsin in phosphate-buffered saline (PBS) (0.5 ng/μl, pH 7.4, containing 2 mM CaCl2) were mixed and incubated at 37°C. After 0, 1, 2, 4, 8, and 12 h, the percent residual peptide was monitored by HPLC.

glioma cell line U87 = type: cell-based
Excerpt: (§1) Cell Culture and Cell Viability Assay
(§2) The human prostate cancer cell line C4-2B was kindly provided and authenticated by Dr. Leland Chung (Cedars-Sinai Medical Center, Los Angeles, CA, USA). The human lung tumor cell line A549, the human breast tumor cell line MCF-7, and glioma cell line U87 were obtained from Shanghai Cellular Institute of Chinese Academy of Sciences (Shanghai, China). All cell lines were maintained in Dulbecco's modified Eagle's medium (DMEM) involving 10% fetal bovine serum (FBS) and 1% penicillin–streptomycin (PS) (complete DMEM) and was cultured at 37°C with humidified atmosphere of 5% CO2. Cell viability was examined using the cell counting kit (CCK-8) in accordance with manufacturer's protocol. Cells were seeded in 96-well culture plates at a density of 3 ×10^3 cells/well at 37°C for 24 h. Next day, cells were treated without or with various concentrations (0.39, 0.78, 1.56, 3.125, 6.25, 12.5, 25, and 50 μM) of peptides for 96 h after which 10 μl of CCK-8 reagent was added to each well and incubated for further 2 h at 37°C. The optical density (OD) was then measured at a wavelength of 450 nm on a Cell Imaging Multi-Mode Reader (BioTek, Vermont, USA), and the average OD values for each sample were analyzed using Image-J software (NIH, Bethesda, MD, USA). The half maximal inhibitory concentration (IC50) was calculated by GraphPad Prism v7.0 software (San Diego, CA, USA).

[1] = tested on: human breast tumor cell line MCF-7; type: cell-based
Excerpt: as §1, §2

[2] = tested on: human lung tumor cell line A549; type: cell-based
Excerpt: as §1, §2

[3] = tested on: human prostate cancer cell line C4-2B; type: cell-based
Excerpt: as §1, §2

[4] = on-resin all-hydrocarbon stapling by ring-closing metathesis of S5/S5 (i,i+4) or R8/S5 (i,i+7), Grubbs first-generation catalyst (0.45 mmol per 0.15 mmol resin, 3 equiv), then TFA/TIPS/phenol/H2O cleavage and RP-HPLC; details: the molecule shown is the open-chain precursor, 25.0 °C, 4.0 h, 36 steps
[5] = CCK-8, 96 h treatment, 0.39-50 μM, OD 450 nm, read-out: IC50 (μM) U87
[6] = CCK-8, 96 h treatment, 0.39-50 μM, OD 450 nm, read-out: IC50 (μM) MCF-7
[7] = CCK-8, 96 h treatment, 0.39-50 μM, OD 450 nm, read-out: IC50 (μM) A549
[8] = CCK-8, 96 h treatment, 0.39-50 μM, OD 450 nm, read-out: IC50 (μM) C4-2B
[9] = α-chymotrypsin 0.5 ng/μl in PBS pH 7.4 with 2 mM CaCl2, 37°C, 12 h, HPLC
[10] = 21-membered ring, 1,2-dichloroethane

Compound	half-life at 25 µM (α-chymotrypsin)	IC50 (glioma cell line U87; [5])	IC50 [1, 6]	IC50 [2, 7]	IC50 [3, 8]	ring closure, overall yield [4, 10]	further results
CC[C@H](C)[C@H](NC(=O)[C@@H](NC(=O)[C@H](CO)NC(=O)[C@H](C)NC(=O)[C@]1(C)CCCC=CCCC[C@](C)(NC(=O)[C@H](C)NC(=O)[C@H](Cc2ccccc2)NC(=O)[C@H](CC(C)C)NC(=O)CNC(C)=O)C(=O)N[C@@H]([C@@H](C)CC)C(=O)N[C@@H](CCCCN)C(=O)N[C@@H](CCCCN)C(=O)N1)C(C)C)C(=O)N[C@@H](CCCCN)C(=O)NCC(=O)N[C@@H](CC(C)C)C(N)=O [A4K14-citropin1.1-2] (Ac-GLFA[S5]IKK[S5]ASVIKGL-NH2; staple 5-9)	1.72 h						IC50 (glioma cell line U87; 96 h): 14.8 µM; IC50 ([1]; 96 h): 12.7 µM; IC50 ([2]; 96 h): 12.6 µM; IC50 ([3]; 96 h): 10.1 µM
CC[C@H](C)[C@@H]1NC(=O)[C@H](C(C)C)NC(=O)[C@H](C)NC(=O)[C@H](Cc2ccccc2)NC(=O)[C@](C)(NC(=O)CNC(C)=O)CCCCCCC=CCCC[C@@](C)(C(=O)N[C@@H](C)C(=O)N[C@@H](CO)C(=O)N[C@H](C(=O)N[C@H](C(=O)N[C@@H](CCCCN)C(=O)NCC(=O)N[C@@H](CC(C)C)C(N)=O)[C@@H](C)CC)C(C)C)NC(=O)[C@H](CCCCN)NC(=O)[C@H](CCCCN)NC1=O [A4K14-citropin1.1-6] (Ac-G[R8]FAVIKK[S5]ASVIKGL-NH2; staple 2-9)	0.57 h	34.5 µM	23.8 µM	30.2 µM	35.8 µM		
Ac-GLFAVIKKVASVIKGL-NH2 [A4K14-citropin1.1, reference compound]	0.63 h	14.8 µM	14.2 µM	15 µM	29.1 µM		peptide remaining intact after 12 h of protease exposure (α-chymotrypsin; [9]): degraded completely
CC[C@H](C)[C@H](NC(=O)[C@@H](NC(=O)[C@H](C)NC(=O)[C@H](Cc1ccccc1)NC(=O)[C@H](CC(C)C)NC(=O)CNC(C)=O)C(C)C)C(=O)N[C@@H](CCCCN)C(=O)N[C@@H](CCCCN)C(=O)N[C@H](C(=O)N[C@@H](C)C(=O)N[C@@]1(C)CCCC=CCCC[C@@](C)(C(=O)N[C@@H](CC(C)C)C(N)=O)NC(=O)[C@H](CCCCN)NC(=O)[C@H]([C@@H](C)CC)NC(=O)[C@H](C(C)C)NC1=O)C(C)C [A4K14-citropin1.1-5] (Ac-GLFAVIKKVA[S5]VIK[S5]L-NH2; staple 11-15)	1.83 h	8.23 µM	12.4 µM	9.9 µM	11.9 µM		
CC[C@H](C)[C@H](NC(=O)[C@@H](NC(=O)[C@H](CO)NC(=O)[C@H](C)NC(=O)[C@@H](NC(=O)[C@H](CCCCN)NC(=O)[C@H](CCCCN)NC(=O)[C@]1(C)CCCC=CCCC[C@](C)(NC(=O)CNC(C)=O)C(=O)N[C@@H](Cc2ccccc2)C(=O)N[C@@H](C)C(=O)N[C@@H](C(C)C)C(=O)N1)C(C)C)C(C)C)C(=O)N[C@@H](CCCCN)C(=O)NCC(=O)N[C@@H](CC(C)C)C(N)=O [A4K14-citropin1.1-1] (Ac-G[S5]FAV[S5]KKVASVIKGL-NH2; staple 2-6)	> 10 h	11.9 µM	11.3 µM	12.5 µM	8.94 µM		remaining at 12 h, 25 µM (α-chymotrypsin; [9]): > 85%
C=CCCCCCC[C@@](C)(NC(=O)[C@@H](NC(=O)[C@H](C)NC(=O)[C@H](Cc1ccccc1)NC(=O)[C@H](CC(C)C)NC(=O)CNC(C)=O)C(C)C)C(=O)N[C@@H](CCCCNC(=O)OC(C)(C)C)C(=O)N[C@@H](CCCCNC(=O)OC(C)(C)C)C(=O)N[C@H](C(=O)N[C@@H](C)C(=O)N[C@@H](COC(C)(C)C)C(=O)N[C@H](C(=O)N[C@@](C)(CCCC=C)C(=O)N[C@@H](CCCCNC(=O)OC(C)(C)C)C(=O)NCC(=O)N[C@@H](CC(C)C)C(N)=O)C(C)C)C(C)C							ring closure, overall yield ([4]; 33-membered ring, 1,2-dichloroethane): 62 % yield
C=CCCC[C@](C)(NC(=O)[C@H](C)NC(=O)[C@H](Cc1ccccc1)NC(=O)[C@H](CC(C)C)NC(=O)CNC(C)=O)C(=O)N[C@H](C(=O)N[C@@H](CCCCNC(=O)OC(C)(C)C)C(=O)N[C@@H](CCCCNC(=O)OC(C)(C)C)C(=O)N[C@@](C)(CCCC=C)C(=O)N[C@@H](C)C(=O)N[C@@H](COC(C)(C)C)C(=O)N[C@H](C(=O)N[C@H](C(=O)N[C@@H](CCCCNC(=O)OC(C)(C)C)C(=O)NCC(=O)N[C@@H](CC(C)C)C(N)=O)[C@@H](C)CC)C(C)C)[C@@H](C)CC						62 % yield	
C=CCCC[C@](C)(NC(=O)CNC(C)=O)C(=O)N[C@@H](Cc1ccccc1)C(=O)N[C@@H](C)C(=O)N[C@H](C(=O)N[C@@](C)(CCCC=C)C(=O)N[C@@H](CCCCNC(=O)OC(C)(C)C)C(=O)N[C@@H](CCCCNC(=O)OC(C)(C)C)C(=O)N[C@H](C(=O)N[C@@H](C)C(=O)N[C@@H](COC(C)(C)C)C(=O)N[C@H](C(=O)N[C@H](C(=O)N[C@@H](CCCCNC(=O)OC(C)(C)C)C(=O)NCC(=O)N[C@@H](CC(C)C)C(N)=O)[C@@H](C)CC)C(C)C)C(C)C)C(C)C						63 % yield	
C=CCCC[C@](C)(NC(=O)[C@@H](NC(=O)[C@H](C)NC(=O)[C@H](Cc1ccccc1)NC(=O)[C@H](CC(C)C)NC(=O)CNC(C)=O)C(C)C)C(=O)N[C@@H](CCCCNC(=O)OC(C)(C)C)C(=O)N[C@@H](CCCCNC(=O)OC(C)(C)C)C(=O)N[C@H](C(=O)N[C@@](C)(CCCC=C)C(=O)N[C@@H](COC(C)(C)C)C(=O)N[C@H](C(=O)N[C@H](C(=O)N[C@@H](CCCCNC(=O)OC(C)(C)C)C(=O)NCC(=O)N[C@@H](CC(C)C)C(N)=O)[C@@H](C)CC)C(C)C)C(C)C						71 % yield	
CC(=O)NCC(=O)N[C@@H](CC(C)C)C(=O)N[C@@H](Cc1ccccc1)C(=O)N[C@@H](C)C(=O)N[C@H](C(=O)N[C@]1(C)CCCCCCC=CCCC[C@@](C)(C(=O)N[C@@H](CCCCN)C(=O)NCC(=O)N[C@@H](CC(C)C)C(N)=O)NC(=O)[C@H](C(C)C)NC(=O)[C@H](CO)NC(=O)[C@H](C)NC(=O)[C@H](C(C)C)NC(=O)[C@H](CCCCN)NC(=O)[C@H](CCCCN)NC1=O)C(C)C [A4K14-citropin1.1-7] (Ac-GLFAV[R8]KKVASV[S5]KGL-NH2; staple 6-13)	0.58 h	14.7 µM	12.1 µM	16.4 µM	10.2 µM		
CC[C@H](C)[C@H](NC(=O)[C@@H](NC(=O)[C@H](CO)NC(=O)[C@]1(C)CCCC=CCCC[C@](C)(NC(=O)[C@@H](NC(=O)[C@H](C)NC(=O)[C@H](Cc2ccccc2)NC(=O)[C@H](CC(C)C)NC(=O)CNC(C)=O)C(C)C)C(=O)N[C@@H](CCCCN)C(=O)N[C@@H](CCCCN)C(=O)N[C@@H](C(C)C)C(=O)N1)C(C)C)C(=O)N[C@@H](CCCCN)C(=O)NCC(=O)N[C@@H](CC(C)C)C(N)=O [A4K14-citropin1.1-3] (Ac-GLFAV[S5]KKV[S5]SVIKGL-NH2; staple 6-10)	0.61 h	11.9 µM	11.9 µM	12.1 µM	17.9 µM		
C=CCCC[C@](C)(NC(=O)[C@H](CCCCNC(=O)OC(C)(C)C)NC(=O)[C@H](CCCCNC(=O)OC(C)(C)C)NC(=O)[C@@H](NC(=O)[C@@H](NC(=O)[C@H](C)NC(=O)[C@H](Cc1ccccc1)NC(=O)[C@H](CC(C)C)NC(=O)CNC(C)=O)C(C)C)[C@@H](C)CC)C(=O)N[C@@H](C)C(=O)N[C@@H](COC(C)(C)C)C(=O)N[C@H](C(=O)N[C@@](C)(CCCC=C)C(=O)N[C@@H](CCCCNC(=O)OC(C)(C)C)C(=O)NCC(=O)N[C@@H](CC(C)C)C(N)=O)C(C)C						66 % yield	
CC[C@H](C)[C@H](NC(=O)[C@@H](NC(=O)[C@H](C)NC(=O)[C@H](Cc1ccccc1)NC(=O)[C@H](CC(C)C)NC(=O)CNC(C)=O)C(C)C)C(=O)N[C@@H](CCCCN)C(=O)N[C@@H](CCCCN)C(=O)N[C@@]1(C)CCCC=CCCC[C@@](C)(C(=O)N[C@@H](CCCCN)C(=O)NCC(=O)N[C@@H](CC(C)C)C(N)=O)NC(=O)[C@H](C(C)C)NC(=O)[C@H](CO)NC(=O)[C@H](C)NC1=O [A4K14-citropin1.1-4] (Ac-GLFAVIKK[S5]ASV[S5]KGL-NH2; staple 9-13)	> 10 h	7.28 µM	10.5 µM	10.5 µM	8.9 µM		remaining at 12 h, 25 µM (α-chymotrypsin; [9]): > 85%
